How the values were obtained:
[1] = target: T1, sterol 14-demethylase (NfCYP51) (Naegleria fowleri, UniProt A0A2H4A2U9); assay: co-crystal structure at […] Å; UV-vis type II titration; format: binding
T1 construct: gene NF0102700; 34 N-terminal membrane anchoring residues replaced with MAKKTSSKGKL
T1 sequence (A0A2H4A2U9 12-460): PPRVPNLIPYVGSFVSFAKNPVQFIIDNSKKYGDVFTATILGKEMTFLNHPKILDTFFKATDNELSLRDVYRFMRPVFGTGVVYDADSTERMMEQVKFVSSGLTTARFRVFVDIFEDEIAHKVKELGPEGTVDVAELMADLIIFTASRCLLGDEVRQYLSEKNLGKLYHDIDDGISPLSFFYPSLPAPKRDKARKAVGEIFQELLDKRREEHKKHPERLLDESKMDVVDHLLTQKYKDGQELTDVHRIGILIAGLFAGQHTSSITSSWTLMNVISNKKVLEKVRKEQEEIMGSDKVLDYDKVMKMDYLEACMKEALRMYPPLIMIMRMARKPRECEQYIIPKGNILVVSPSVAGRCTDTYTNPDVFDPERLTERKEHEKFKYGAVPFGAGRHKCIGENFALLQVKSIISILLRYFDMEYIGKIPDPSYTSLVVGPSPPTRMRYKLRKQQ

[2] = target: T1, sterol 14-demethylase (NfCYP51); assay: UV-vis spectral binding titration (type I difference spectrum)

| SMILES | co-crystal structure at 2.70 Å; UV-vis type II titration [1] | Kd [2] [µM] |
| --- | --- | --- |
| OC(Cn1cncn1)(Cn1cncn1)c1ccc(F)cc1F [Fluconazole] | fluconazole, binds NfCYP51 with affinity roughly an order of magnitude exceeding that of natural substrate, 31-norlanosterol |  |
| CC(C)=CCC[C@@H](C)[C@H]1CC[C@@]2(C)C3=C(CC[C@]12C)[C@@]1(C)CC[C@H](O)[C@@H](C)[C@@H]1CC3 [compound 14, 31-Norlanosterol] |  | 0.124 ± 0.025 |

— PMC5746216, “CYP51 is an essential drug target for the treatment of primary amoebic meningoencephalitis (PAM)” (PLoS Neglected Tropical Diseases, 2017)
